Test results published in PMC12691669, “Inhibitors of the 20S proteasome β5 subunit as potent and selective agents against Trichomonas vaginalis” (Antimicrobial Agents and Chemotherapy, 2025).
“Also recorded” adds a separate entry of the source.

What was measured:
[1] = test system: T. vaginalis strain F1623; test: 24 h growth and survival assay (ATP luminescence, GI50); assay type: cell-based, Trichomonas vaginalis; conditions: for SI (ratio of GI50 in HeLa cells over GI50 in T. vaginalis): T. vaginalis F1623 vs human HeLa cells
Procedure: The following T. vaginalis strains were used: F1623 ([50]), G3 (ATCC PRA-98), and LA1 ([25]). […] Drug susceptibility assays were performed as described previously ([23]) with several minor modifications. Briefly, 10 mM stocks of the test compounds in DMSO were serially diluted 1:3 using an Echo 650 Acoustic Liquid Handler (Beckman Coulter). Subsequently, trophozoites (5 × 10^3/well) in TYM modified media were added to the wells in 384-well plates, and cultures were incubated for 24 h at 37°C under anaerobic conditions (AnaeroPack-Anaero System; Remel). For testing in mammalian cells, the following cell lines were used: Human cervical cancer cells HeLa (ATCC CCL-2), non-transformed mouse fibroblast cell line 3T3-L1 (ATCC CL-173), normal monkey kidney epithelial cell line Vero (ATCC CCL-81), and human B lymphoma cells Raji (ATCC CCL-86). Test compounds were serially diluted (1:3) and added to mammalian cell cultures grown in 384-well plates, and cultures were incubated for 48 h at 37°C in 5% CO2, 95% air. Growth and viability of T. vaginalis and mammalian cells were determined with an ATP assay by adding the BacTiter-Glo Microbial Cell Viability Assay reagent (Promega) directly to the wells and measuring ATP-dependent luminescence in a microplate reader. […] Experiments were repeated at least three times, and the mean and SEM of the pGI50 values were calculated.

[2] = biological target: T. vaginalis Tv20S proteasome β1 subunit (Trichomonas vaginalis, UniProt A2E7Z2); test: In vitro proteasome assay, Ac-RYFD-amc substrate; assay type: biochemical; conditions: recombinant Tv20S, mean ± SD of three experiments
Chain of T. vaginalis Tv20S proteasome β1 subunit (A2E7Z2 entry or part of it): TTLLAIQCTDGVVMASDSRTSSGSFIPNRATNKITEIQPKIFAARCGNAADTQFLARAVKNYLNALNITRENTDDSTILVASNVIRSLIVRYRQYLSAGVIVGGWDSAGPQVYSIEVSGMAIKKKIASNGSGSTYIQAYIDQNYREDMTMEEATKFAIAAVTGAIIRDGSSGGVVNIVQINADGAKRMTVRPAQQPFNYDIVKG
Procedure: (§1) The T. vaginalis proteasome was expressed in recombinant form as previously described ([27]). Briefly, Spodoptera frugiperda cells were co-infected with three baculovirus vectors carrying the T. vaginalis genes for the 7 α-subunits, 7 β-subunits, and the Ump-1 chaperone, respectively. The resulting proteasome complex was purified from cell lysates via streptavidin column and size exclusion chromatography and stored at −80°C. Purified human c20S proteasome and recombinant human proteasome activator PA28α ([21]) were obtained from Bio-Techne and stored at −80°C. Dilutions of the test agents were transferred to 384-well plates (Greiner Bio-One) in triplicate wells using an Echo 650 Acoustic Liquid Handler (Beckman Coulter). Six replicate plates were prepared for each compound for testing with three T. vaginalis-optimized substrates and three human-optimized substrates. After dispensing, plates were sealed and stored at −20°C. The following fluorescent substrates and final substrate concentrations were used to assay subunit activities of the T. vaginalis proteasome (Tv20S) ([28]) or the human constitutive proteasome (c20S) ([19], [52]): Ac-RYFD-amc (Genscript) at 100 µM for Tv20S β1 subunit, Ac-FRSR-amc (Genscript) at 20 µM for Tv20S β2 subunit, Ac-GWYL-amc (Genscript) at 20 µM for Tv20S β5 subunit, z-LLE-amc (R&D Systems) at 80 µM for c20S β1 subunit, z-VLR-amc (AdipoGen Life Sciences) at 30 µM for c20S β2 subunit, and suc-LLVY-amc (R&D Systems) at 65 µM for c20S β5 subunit. Substrates and proteasomes were diluted in an assay buffer consisting of HEPES pH 7.5 and 1 mM DTT. For the human proteasome assays, 2 nM c20S was incubated at room temperature with 200 nM PA28α for 1 h to activate the complex prior to addition to the 384-well plates containing the substrate-inhibitor mixtures. […] Both proteasomes were added to the wells at a 1 nM final assay concentration. Fluorescence was measured over 4 h at 360 nm excitation and 460 nm emission on a Biotek Synergy HTX plate reader.

[3] = test system: T. vaginalis Tv20S proteasome β2 subunit; test: In vitro proteasome assay, Ac-FRSR-amc substrate; assay type: biochemical, Trichomonas vaginalis; conditions: recombinant Tv20S, mean ± SD of three experiments
Procedure: as §1

[4] = biological target: T. vaginalis Tv20S proteasome β5 subunit (Trichomonas vaginalis, UniProt A2DD57+A2F716); test: biochemical; assay type: biochemical; conditions: recombinant Tv20S, mean ± SD of three experiments; for IC50: read-out: Tv20S proteasome inhibition of β5 subunit (IC50)
Chain of T. vaginalis Tv20S proteasome β5 subunit (A2DD57 entry or part of it): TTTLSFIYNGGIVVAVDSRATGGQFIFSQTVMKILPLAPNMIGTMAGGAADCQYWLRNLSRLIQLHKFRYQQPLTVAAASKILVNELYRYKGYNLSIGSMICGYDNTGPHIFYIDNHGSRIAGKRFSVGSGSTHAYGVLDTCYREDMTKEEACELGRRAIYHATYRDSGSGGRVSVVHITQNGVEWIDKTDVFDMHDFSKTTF
Chain of T. vaginalis Tv20S proteasome β5 subunit (A2F716 entry or part of it): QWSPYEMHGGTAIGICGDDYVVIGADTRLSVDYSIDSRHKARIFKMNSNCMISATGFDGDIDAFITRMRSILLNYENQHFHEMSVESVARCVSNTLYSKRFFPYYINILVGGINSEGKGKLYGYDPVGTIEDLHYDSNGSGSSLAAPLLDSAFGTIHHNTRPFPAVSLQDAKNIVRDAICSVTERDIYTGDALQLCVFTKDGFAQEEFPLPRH
Procedure: as §1

[5] = biological target: T1, Human c20S proteasome β1 subunit (Homo sapiens, UniProt P28072+Q99436); test: In vitro proteasome assay, z-LLE-amc substrate; assay type: biochemical; conditions: purified human c20S with PA28α, mean ± SD
T1 construct: purchased Bio-Techne
Procedure: as §1

[6] = biological target: T2, Human c20S proteasome β2 subunit (Homo sapiens, UniProt P49720+Q99436); test: In vitro proteasome assay, z-VLR-amc substrate; assay type: biochemical; conditions: purified human c20S with PA28α, mean ± SD
T2 construct: purchased Bio-Techne
Procedure: as §1

[7] = biological target: T3, Human c20S proteasome β5 subunit (Homo sapiens, UniProt P20618+P28074); test: In vitro proteasome assay, suc-LLVY-amc substrate; assay type: biochemical; conditions: purified human c20S with PA28α, mean ± SD; for IC50: read-out: Human c20S proteasome inhibition of β5 subunit (IC50)
T3 construct: purchased Bio-Techne
Procedure: as §1

[8] = test system: β5 proteasome subunit in live T. vaginalis F1623 (compared to human HeLa cells); test: Fluorescence gel assay of proteasome subunit targeting in live cells; assay type: cell-based, Trichomonas vaginalis; conditions: 3 h incubation, gel densitometry, T. vaginalis F1623 vs HeLa
Procedure: T. vaginalis F1623 and human HeLa cells were incubated for 3 h with proteasome inhibitors at a range of concentrations or with solvent as a control. Cells were lysed by three consecutive freeze/thaw cycles in a buffer of 50 mM HEPES, pH 7.5, 10 µM E64, 100 µM AEBSF, 10 µM RR11a, 1 µM Pepstatin, and 1 mM DTT. Protein concentrations were measured with the Pierce BCA assay (Thermo Scientific) and adjusted to 5 mg/mL. Samples were incubated with 2 µM Me4BodipyFL-Ahx3Leu3VS ([53]) at 2.5 mg/mL protein concentration for 24 h at 37°C. […] Band intensities were quantified using ImageJ (NIH). Each peak corresponding to a protein band was selected, and the area under the curve was determined after subtraction of the intensity in an adjacent area outside of the respective band. For closely spaced bands, the midpoint between the peaks of two bands was used to separate the areas. Band intensities were normalized to the respective controls, not incubated with inhibitors.

[9] = test system: ubiquitin-conjugated proteins in T. vaginalis F1623; test: Immunoblot analysis of ubiquitin labeling; assay type: cell-based, Trichomonas vaginalis; conditions: 3 h treatment, 30× GI50
Procedure: Protein concentrations were measured using the Pierce BCA assay (Thermo Scientific) and adjusted to 10 mg/mL. Proteins were fractionated on SDS-PAGE, transferred onto a nitrocellulose membrane (Bio-Rad), which was blocked with 5% non-fat dry milk in TBST buffer (20 mM Tris base, 150 mM NaCl, 0.05% Tween 20, pH adjusted to 7.6 with HCl) for 1 h and probed with primary anti-ubiquitin antibody (Proteintech, 10201-2-AP) at a 1:2,000 dilution, followed by incubation with anti-rabbit horseradish peroxidase (HRP)-conjugated IgG (Jackson laboratory) at a 1:5,000 dilution. HRP labeling was visualized by chemiluminescence (Immobilon, Millipore).

[10] = design: method as in PMID 30380863, PMID 36969170; conditions: at therapeutic concentrations; cited from earlier work
[11] = test system: human cell line HeLa; test: 48 h cytotoxicity (growth and viability) assay in mammalian cells; assay type: cell-based
Procedure: The following T. vaginalis strains were used: F1623 ([50]), G3 (ATCC PRA-98), and LA1 ([25]). Parasites were grown at 37°C in TYM Diamond’s medium supplemented with 180 µM ferrous ammonium sulfate ([51]). Drug susceptibility assays were performed as described previously ([23]) with several minor modifications. Briefly, 10 mM stocks of the test compounds in DMSO were serially diluted 1:3 using an Echo 650 Acoustic Liquid Handler (Beckman Coulter). Subsequently, trophozoites (5 × 10^3/well) in TYM modified media were added to the wells in 384-well plates, and cultures were incubated for 24 h at 37°C under anaerobic conditions (AnaeroPack-Anaero System; Remel). For testing in mammalian cells, the following cell lines were used: Human cervical cancer cells HeLa (ATCC CCL-2), non-transformed mouse fibroblast cell line 3T3-L1 (ATCC CL-173), normal monkey kidney epithelial cell line Vero (ATCC CCL-81), and human B lymphoma cells Raji (ATCC CCL-86). […] Growth and viability of T. vaginalis and mammalian cells were determined with an ATP assay by adding the BacTiter-Glo Microbial Cell Viability Assay reagent (Promega) directly to the wells and measuring ATP-dependent luminescence in a microplate reader. […] Experiments were repeated at least three times, and the mean and SEM of the pGI50 values were calculated.

CCCCCC(=O)NC(CC(=O)NC(CCCC)C(=O)NC(Cc1ccccc1)C(=O)C1(C)CO1)CC(=O)OC(C)(C)C (stereo not drawn) [compound 8]
SI (ratio of GI50 in HeLa cells over GI50 in T. vaginalis) [1]: 218.8
Tv20S proteasome inhibition of β1 subunit (IC50) [2]: Activation
Tv20S proteasome inhibition of β2 subunit (IC50) [3]: No inhibition
IC50 [4]: 43.7 ± 12.3 nM
Human c20S proteasome inhibition of β1 subunit (IC50) [5]: No inhibition
Human c20S proteasome inhibition of β2 subunit (IC50) [6]: No inhibition
IC50 [7]: 4100 nM
β5 inactivated in T. vaginalis at lower concentrations compared to human cells [8]: 22 fold
abundance of ubiquitin-labeled proteins [9]: accumulation of ubiquitinated proteins

COc1ccc(C[C@H](NC(=O)[C@H](C)NC(=O)C2=C(C)c3ccccc3C2)C(=O)N[C@@H](Cc2ccccc2)C(=O)[C@@]2(C)CO2)cc1 [compound 4]
SI (ratio of GI50 in HeLa cells over GI50 in T. vaginalis) [1]: 21.4
Tv20S proteasome inhibition of β1 subunit (IC50) [2]: Activation
Tv20S proteasome inhibition of β2 subunit (IC50) [3]: No inhibition
IC50 [4]: 8.21 ± 1.16 nM
IC50 ([5]; read-out: Human c20S proteasome inhibition of β1 subunit (IC50)): 19700 ± 8580 nM
IC50 ([6]; read-out: Human c20S proteasome inhibition of β2 subunit (IC50)): 1690 ± 410 nM
IC50 [7]: 11 ± 1.12 nM

COc1ccc(C[C@H](NC(=O)[C@H](C)NC(=O)C2=C(C)c3ccccc3C2)C(=O)N[C@@H](Cc2ccc(-c3ccccc3)cc2)C(=O)[C@@]2(C)CO2)cc1 [compound 20]
SI (ratio of GI50 in HeLa cells over GI50 in T. vaginalis) [1]: 16.2
Tv20S proteasome inhibition of β1 subunit (IC50) [2]: Activation
Tv20S proteasome inhibition of β2 subunit (IC50) [3]: No inhibition
IC50 [4]: 44.1 ± 6.71 nM
Human c20S proteasome inhibition of β1 subunit (IC50) [5]: No inhibition
Human c20S proteasome inhibition of β2 subunit (IC50) [6]: No inhibition
IC50 [7]: 39.4 ± 4.76 nM

COc1ccc([C@@H](O)[C@H](NC(=O)[C@H](C)NC(=O)CN2CCOCC2)C(=O)N[C@@H](CC2=CCCC2)C(=O)[C@@]2(C)CO2)cc1 [zetomipzomib, (2 S,3 R)-N-((S)-3-(Cyclopent-1-en-1-yl)-1-((R)-2-methyloxiran-2-yl)-1-oxopropan-2-yl)-3-hydroxy-3-(4-methoxyphenyl)-2-((S)-2-(2-morpholinoacetamido)propanamido)propenamide]
effect on T-dependent antibody responses or number of circulating lymphocytes [10]: did not significantly affect

COc1ccc(CC(NC(=O)C(C)NC(=O)OCc2ccccc2)C(=O)NC(Cc2ccccc2)C(=O)C2(C)CO2)cc1 (stereo not drawn) [compound 12]
SI (ratio of GI50 in HeLa cells over GI50 in T. vaginalis) [1]: 63.1
Tv20S proteasome inhibition of β1 subunit (IC50) [2]: Activation
Tv20S proteasome inhibition of β2 subunit (IC50) [3]: No inhibition
IC50 [4]: 20.6 ± 5.39 nM
Human c20S proteasome inhibition of β1 subunit (IC50) [5]: No inhibition
Human c20S proteasome inhibition of β2 subunit (IC50) [6]: No inhibition
IC50 [7]: 379 ± 61.2 nM
β5 inactivated in T. vaginalis at lower concentrations compared to human cells [8]: 12 fold
abundance of ubiquitin-labeled proteins [9]: accumulation of ubiquitinated proteins

C=C(C)C(=O)[C@H](Cc1ccccc1)NC(=O)[C@H](Cc1ccc(OC)cc1)NC(=O)[C@H](C)NC(=O)C1=C(C)c2ccccc2C1 [compound 104]
growth inhibitory activity against T. vaginalis (in words) ([1]; F1623): only minimally inhibitory
SI (ratio of GI50 in HeLa cells over GI50 in T. vaginalis) [1]: 1.05
growth inhibitory activity against human cells (in words) [11]: only minimally inhibitory
Tv20S proteasome inhibition of β1 subunit (IC50) [2]: did not inhibit; also recorded: No inhibition
Tv20S proteasome inhibition of β2 subunit (IC50) [3]: did not inhibit; also recorded: No inhibition
Tv20S proteasome inhibition of β5 subunit (IC50) [4]: did not inhibit; also recorded: No inhibition
Human c20S proteasome inhibition of β1 subunit (IC50) [5]: no inhibitory activity; also recorded: No inhibition
Human c20S proteasome inhibition of β2 subunit (IC50) [6]: no inhibitory activity; also recorded: No inhibition
Human c20S proteasome inhibition of β5 subunit (IC50) [7]: no inhibitory activity; also recorded: No inhibition
